Molecular target: T1, P-glycoprotein (Homo sapiens, UniProt P08183)
T1 construct: A P-glycoprotein overexpressing cell line derived from the human uterine sarcoma cell line MES-SA; host or cells: MES-SA/DX5 (human uterine sarcoma, doxorubicin-selected)
Assay: Determination of P-glycoprotein inhibitory activity (MTT cell growth, MES-SA/DX5 cells with docetaxel or paclitaxel)
Format: cell-based
Settings: compound + 100 nM docetaxel or 200 nM paclitaxel, 3 days
Procedure: A P-glycoprotein overexpressing cell line derived from the human uterine sarcoma cell line MES-SA (i.e., MES-SA/DX5 cells (ATCC)) was seeded by stepwise exposures to increasing concentrations of doxorubicin, in a 96-well plate at 6,500 cells/100 μL media (McCoy's 5A+10% FBS) in each well. The cells were incubated overnight at 37° C., 5% CO2. […] DMSO was used as a negative control and known P-glycoprotein inhibitor, encequidar methane sulfonic acid monohydrate (HM30181A), was used as a positive control. […] Treated cells were incubated for 3 days at 37° C., 5% CO2.
To value (reflecting the starting number of cells upon Compound treatment) of 3 wells of cells was determined by performing the following steps 1-4 as described below.
1. 10 μL MTT (5 mg/mL in PBS) was added to each well and incubated for 1.5 hours at 37° C., 5% CO2.
2. Culture media was removed and 100 μL of DMSO was added to each well.
3. The plate was gently shook until all purple MTT formazan crystals were dissolved. OD540 was then measured using microplate reader.
4. Cell growth percentage was calculated with the following equation:
Cell growth percentage=(T−T0)/(C−T0)×100%,

T1 sequence (P08183 whole entry): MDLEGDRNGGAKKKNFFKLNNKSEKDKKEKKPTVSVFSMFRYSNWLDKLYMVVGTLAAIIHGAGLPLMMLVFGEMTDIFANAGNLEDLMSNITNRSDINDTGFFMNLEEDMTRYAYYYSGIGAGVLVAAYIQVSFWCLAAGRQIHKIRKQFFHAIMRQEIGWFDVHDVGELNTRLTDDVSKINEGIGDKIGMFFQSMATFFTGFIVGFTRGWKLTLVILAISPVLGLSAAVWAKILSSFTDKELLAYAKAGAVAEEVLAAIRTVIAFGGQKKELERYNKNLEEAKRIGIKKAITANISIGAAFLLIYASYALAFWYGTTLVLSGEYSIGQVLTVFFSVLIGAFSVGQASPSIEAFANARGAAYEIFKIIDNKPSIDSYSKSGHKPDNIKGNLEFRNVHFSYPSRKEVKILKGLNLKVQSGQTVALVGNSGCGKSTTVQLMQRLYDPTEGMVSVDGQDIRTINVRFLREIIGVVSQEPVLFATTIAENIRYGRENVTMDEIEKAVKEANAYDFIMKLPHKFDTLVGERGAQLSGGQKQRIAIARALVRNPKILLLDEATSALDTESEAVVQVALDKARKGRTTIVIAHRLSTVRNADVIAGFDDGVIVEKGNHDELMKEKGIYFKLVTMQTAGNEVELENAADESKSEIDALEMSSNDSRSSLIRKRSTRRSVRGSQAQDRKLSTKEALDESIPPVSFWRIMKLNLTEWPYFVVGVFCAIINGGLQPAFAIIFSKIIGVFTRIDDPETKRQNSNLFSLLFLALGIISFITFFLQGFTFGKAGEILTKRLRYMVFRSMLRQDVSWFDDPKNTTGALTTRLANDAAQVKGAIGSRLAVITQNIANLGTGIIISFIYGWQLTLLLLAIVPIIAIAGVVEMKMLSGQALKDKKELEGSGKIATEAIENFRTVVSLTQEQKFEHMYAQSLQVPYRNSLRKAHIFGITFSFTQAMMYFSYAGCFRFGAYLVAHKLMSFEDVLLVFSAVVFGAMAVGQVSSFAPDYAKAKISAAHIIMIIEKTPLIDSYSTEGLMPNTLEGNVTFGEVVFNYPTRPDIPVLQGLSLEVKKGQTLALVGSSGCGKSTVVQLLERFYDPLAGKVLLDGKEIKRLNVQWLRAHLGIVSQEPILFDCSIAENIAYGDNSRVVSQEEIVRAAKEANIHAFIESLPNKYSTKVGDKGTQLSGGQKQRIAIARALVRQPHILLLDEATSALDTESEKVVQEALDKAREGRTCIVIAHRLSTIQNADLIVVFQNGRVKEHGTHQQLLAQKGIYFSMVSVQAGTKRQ

For `COc1cc2c(cc1OC)CN(CCc1ccc(-n3nnc(-c4cc(OC)c(OC)cc4NC(=O)c4cc(=O)c5ccccc5o4)n3)cc1)CC2.CS(=O)(=O)O.O` [encequidar methane sulfonic acid monohydrate], the EC50 was less than 0.1 µM.

Molecular target: CYP3A4 (Homo sapiens, UniProt P08684)
Sequence (P08684 whole entry): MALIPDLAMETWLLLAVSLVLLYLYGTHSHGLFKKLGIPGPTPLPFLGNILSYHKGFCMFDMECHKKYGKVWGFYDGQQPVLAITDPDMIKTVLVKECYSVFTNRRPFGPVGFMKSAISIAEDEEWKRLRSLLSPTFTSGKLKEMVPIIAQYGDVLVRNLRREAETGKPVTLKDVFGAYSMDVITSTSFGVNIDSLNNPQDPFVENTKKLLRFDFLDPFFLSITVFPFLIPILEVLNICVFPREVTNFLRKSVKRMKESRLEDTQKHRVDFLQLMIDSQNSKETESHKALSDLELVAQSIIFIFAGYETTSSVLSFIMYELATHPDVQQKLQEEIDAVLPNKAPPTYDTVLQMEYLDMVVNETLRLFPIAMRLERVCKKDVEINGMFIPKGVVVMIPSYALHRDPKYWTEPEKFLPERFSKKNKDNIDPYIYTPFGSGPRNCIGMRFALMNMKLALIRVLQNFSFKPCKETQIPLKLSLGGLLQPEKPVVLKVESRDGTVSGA
Assay: Determination of CYP3A4 inhibitory activity (human liver microsome, Luciferin-IPA)
Settings: CYP3A4 IC50 (nM), 37° C. 11 minutes
Procedure, shortened: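 Final compound concentrations 37, 111, 333, 1000 and 3000 nM; reaction at 37° C for 11 min, then luciferin detection reagent 5 min at room temperature with luminescence read-out. IC50 from nonlinear regression of dose-response.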

First: COc1cc(NC(=O)c2cc(=O)c3ccccc3o2)c(C(=O)Nc2ccc(CCN(Cc3cncc(F)c3)Cc3ccc4c(cnn4C)c3)cc2)cc1OC [Compound 46]
Second: COc1cc(NC(=O)c2cc(=O)c3ccccc3o2)c(C(=O)Nc2ccc(CCN(Cc3cccnc3)Cc3ccc4cnn(C)c4c3)cc2)cc1OC [Compound 32]
The IC50 of the first is higher: 250 to 500 nM for the first, less than 100 nM for the second.

`COc1cc(NC(=O)c2cc(=O)c3ccccc3o2)c(C(=O)Nc2ccc(CCN(Cc3ccc4c(cnn4C)c3)Cc3ccc4c(c3)c(C)nn4C)cc2)cc1OC` [Compound 181] and `COc1cc(NC(=O)c2cc(=O)c3ccccc3o2)c(C(=O)Nc2ccc(CCN(Cc3cccc(-n4ccnc4C)c3)Cc3ccc4c(cnn4C)c3)cc2)cc1OC` [Compound 249] cannot be ordered by IC50: greater than 1000 nM for the first, greater than 1000 nM for the second.

`CCN(CCc1ccc(NC(=O)c2cc(OC)c(OC)cc2NC(=O)c2cc(=O)c3ccccc3o2)cc1)Cc1ccc2cn[nH]c2c1` [Compound 185] and `CCN(CCc1ccc(NC(=O)c2cc(OC)c(OC)cc2NC(=O)c2cc(=O)c3ccccc3o2)cc1)Cc1ccc2c(c1)ncn2C` [Compound 109] cannot be ordered by IC50: greater than 1000 nM for the first, greater than 1000 nM for the second.

`CCn1ncc2cc(CN(C)CCc3ccc(NC(=O)c4cc(OC)c(OC)cc4NC(=O)c4cc(=O)c5ccccc5o4)cc3)ccc21` [Compound 191] and `COc1cc(NC(=O)c2cc(=O)c3ccccc3o2)c(C(=O)Nc2ccc(CCN(C)Cc3ccc4c(c3)ncn4C)cc2)cc1OC` [Compound 98] cannot be ordered by IC50: greater than 1000 nM for the first, greater than 1000 nM for the second.

`COc1cc(NC(=O)c2cc(=O)c3cc(C)ccc3o2)c(C(=O)Nc2ccc(CCN(Cc3cncc(O)c3)Cc3ccc4c(cnn4C)c3)cc2)cc1OC` [Compound 59] and `COc1cncc(CN(CCc2ccc(NC(=O)c3cc(OC)c(OC)cc3NC(=O)c3cc(=O)c4cc(C)ccc4o3)cc2)Cc2ccc3c(c2)c(C)nn3C)c1` [Compound 67] fall in the same range of IC50: 100 to 250 nM for the first, 100 to 250 nM for the second.

`CCN(CCc1ccc(NC(=O)c2cc(OC)c(OC)cc2NC(=O)c2cc(=O)c3ccccc3o2)cc1)Cc1ccc2c(c1)CCO2` [Compound 162] and `COc1cc(NC(=O)c2cc(=O)c3ccccc3o2)c(C(=O)Nc2ccc(CCN(C)Cc3ccc4c(c3)OCO4)cc2)cc1OC` [Compound 138] cannot be ordered by IC50: greater than 1000 nM for the first, greater than 1000 nM for the second.

`COc1cc(NC(=O)c2cc(=O)c3ccccc3o2)c(C(=O)Nc2ccc(CCN(Cc3ccc(-c4ccncc4)cc3)Cc3ccc4c(cnn4C)c3)cc2)cc1OC` [Compound 188] and `COc1cc(NC(=O)c2cc(=O)c3ccccc3o2)c(C(=O)Nc2ccc(CCN(Cc3ccc(-c4cccnc4)cc3)Cc3ccc4c(cnn4C)c3)cc2)cc1OC` [Compound 189] cannot be ordered by IC50: greater than 1000 nM for the first, greater than 1000 nM for the second.

`CCn1cncc1CN(CCc1ccc(NC(=O)c2cc(OC)c(OC)cc2NC(=O)c2cnc3ccccc3n2)cc1)Cc1ccc2c(cnn2C)c1` [Compound 34] and `COc1cc(NC(=O)c2cnc3ccccc3n2)c(C(=O)Nc2ccc(CCN(Cc3cncc(C)c3)Cc3ccc4c(cnn4C)c3)cc2)cc1OC` [Compound 70] fall in the same range of IC50: 100 to 250 nM for the first, 100 to 250 nM for the second.

Compared with `COc1cc(NC(=O)c2cc(=O)c3ccccc3o2)c(C(=O)Nc2ccc(CCN(Cc3cccnc3)Cc3cccc4cnn(C)c34)cc2)cc1OC` [Compound 201], `COc1cc(NC(=O)c2cc(=O)c3ccccc3o2)c(C(=O)Nc2ccc(CCN(Cc3ccc4cnn(C)c4c3)Cc3ncc[nH]3)cc2)cc1OC` [Compound 36] is lower in IC50: 500 to 1000 nM for the first, 100 to 250 nM for the second. The second is the more potent here.

First: CCN(CCc1ccc(NC(=O)c2cc(OC)c(OC)cc2NC(=O)c2cc(=O)c3ccccc3o2)cc1)Cc1ccc(-c2ccco2)cc1 [Compound 143]
Second: CCOc1cc(C(=O)Nc2ccc(CCN(C)Cc3ccc(-n4ccnc4)cc3)cc2)c(NC(=O)c2cc(=O)c3ccccc3o2)cc1OC [Compound 108]
The IC50 of the first is higher: greater than 1000 nM for the first, 250 to 500 nM for the second. The second is the more potent here.

First: COC(=O)c1ccc(C(=O)Nc2ccc(CCN(Cc3ccc(OC)c(OC)c3)Cc3ccc(OC)c(OC)c3)cc2)c(NC(=O)c2cc(=O)c3ccccc3o2)c1 [Compound 263]
Second: COC(=O)c1ccc(CN(CCc2ccc(NC(=O)c3cc(OC)c(OC)cc3NC(=O)c3cc(=O)c4ccccc4o3)cc2)Cc2cccc(-n3ccnc3)c2)cc1 [Compound 218]
The IC50 of the first is higher: greater than 1000 nM for the first, 100 to 250 nM for the second.

First: COc1cc(NC(=O)c2cc(=O)c3ccccc3o2)c(C(=O)Nc2ccc(CCN)cc2)cc1OC [Compound 215]
Second: COc1cc(NC(=O)c2cc(=O)c3ccccc3o2)c(C(=O)Nc2ccc(CCN(C)C(=O)CCc3ccncc3)cc2)cc1OC [Compound 120]
The IC50 of the first is higher: greater than 1000 nM for the first, 100 to 250 nM for the second.

`Cn1ncc2cc(CNCCc3ccc(NC(=O)c4ccc(C(=O)O)cc4NC(=O)c4cc(=O)c5ccccc5o4)cc3)ccc21` [Compound 256] and `COc1cc2c(cc1OC)CN(CCc1ccc(NC(=O)c3ccc(C(=O)O)cc3NC(=O)c3cc(=O)c4ccccc4o3)cc1)CC2` [Compound 261] cannot be ordered by IC50: greater than 1000 nM for the first, greater than 1000 nM for the second.

First: COc1cc(NC(=O)c2cc(=O)c3ccccc3o2)c(C(=O)Nc2ccc(CCN(Cc3cccc(-n4cnc(C)c4)c3)Cc3ccc4c(cnn4C)c3)cc2)cc1OC [Compound 23]
Second: COc1cc(NC(=O)c2cc(=O)c3ccccc3o2)c(C(=O)NCc2ccc(CN(Cc3cccc(-c4cncs4)c3)Cc3ccc4c(cnn4C)c3)cc2)cc1OC [Compound 236]
The IC50 of the first is lower: 250 to 500 nM for the first, greater than 1000 nM for the second.

`Cn1ncc2cc(CN(CCc3ccc(NC(=O)c4ccc(C(=O)OCc5cccnc5)cc4NC(=O)c4cc(=O)c5ccccc5o4)cc3)Cc3ccc4c(cnn4C)c3)ccc21` [Compound 268] and `Cn1ncc2cc(CN(CCc3ccc(NC(=O)c4ccc(C(=O)OCc5cncs5)cc4NC(=O)c4cc(=O)c5ccccc5o4)cc3)Cc3ccc4c(cnn4C)c3)ccc21` [Compound 266] cannot be ordered by IC50: greater than 1000 nM for the first, greater than 1000 nM for the second.

First: CCn1ncc2cc(CN(CCc3ccc(NC(=O)c4cc(OC)c(OC)cc4NC(=O)C4CC(=O)c5ccccc5O4)cc3)Cc3cccc(-n4ccnc4)c3)ccc21 (centres unmarked) [Compound 205]
Second: COc1cc(NC(=O)c2cc(=O)c3ccccc3o2)c(C(=O)Nc2ccc(CCN(C)Cc3cc(-n4cnc(C)c4)ccc3C)cc2)cc1OC [Compound 117]
The IC50 of the first is higher: 500 to 1000 nM for the first, 250 to 500 nM for the second. The second is the more potent here.

Same assay, conditions: read-out: CYP3A4 IC50, 37° C. 11 minutes

With `COc1cc2c(cc1OC)CN(CCc1ccc(-n3nnc(-c4cc(OC)c(OC)cc4NC(=O)c4cc(=O)c5ccccc5o4)n3)cc1)CC2.CS(=O)(=O)O.O` [encequidar methane sulfonic acid monohydrate] the IC50 was greater than 1000 nM.

Test system: not listed separately
Assay: Oral absorption of docetaxel in mice (plasma pharmacokinetics of oral docetaxel co-dosed with compound)
Format: in vivo
Settings: CD-1 mice, oral docetaxel 10 mg/kg with oral compound (Compound 16 80 mg/kg, Compound 48 20 mg/kg, encequidar 10 mg/kg); plasma
Procedure: In vivo activity of the compounds of the present disclosure was performed as follows: Eighteen 7- to 9-week-old CD-1 mice were fasted overnight prior to drug administration while they were allowed free access to water and were fed 4 hours post dosing. Mice were divided into four groups of three to five […] each.
Blood samples (approx. 30-50 μL) were obtained via peripheral veins of each mouse before (0) and 0.25, 0.5, 1, 2, 4, and 8 hours after docetaxel administration for control group (entry 1, Table C) and at 0.25, 0.5, 1, 2, 4, and 8 hours after docetaxel administration for rest of the groups (entries 2-4, Table C). Blood samples were treated with EDTA-K2 as anti-coagulant and placed on ice until centrifugation. Each blood sample was centrifuged at 4° C., 3000 g for 15 min within 0.5 hour from plasma collection. An aliquot of 20 μL plasma sample was protein precipitated with 100 μL IS (Internal Standard) solution (100 ng/mL labetalol+100 ng/mL tolbutamide in acetonitrile, 1:1), the mixture was vortex-mixed and centrifuged at 4000 rpm for 15 min at 4° C. An aliquot of 80 μL sample was transferred to a sample plate and mixed with 80 μL water, then the plate was shook at 800 rpm for 10 min. 1-10 μL of the supernatant was then injected for LC-MS/MS analysis under the following conditions:
MS conditions: ESI, positive;
Column: Waters ACQUITY UPLC BEH C18 2.1×50 mm, 1.7 μm;
Mobile phase A: 0.1% formic acid in water; and
Mobile phase B: 0.1% formic acid in acetonitrile.

In the case of `COc1cc2c(cc1OC)CN(CCc1ccc(-n3nnc(-c4cc(OC)c(OC)cc4NC(=O)c4cc(=O)c5ccccc5o4)n3)cc1)CC2.CS(=O)(=O)O.O` [encequidar methane sulfonic acid monohydrate], the “AUC0-inf of oral docetaxel (area under the curve of plasma concentration)” value is reported as 698 ± 238 ng·h/mL.

For `COc1cc2c(cc1OC)CN(CCc1ccc(-n3nnc(-c4cc(OC)c(OC)cc4NC(=O)c4cc(=O)c5ccccc5o4)n3)cc1)CC2.CS(=O)(=O)O.O` [encequidar methane sulfonic acid monohydrate], the “Cmax of oral docetaxel (maximum plasma concentration)” value was 316 ± 98.1 ng/mL.

For `COc1cc2c(cc1OC)CN(CCc1ccc(-n3nnc(-c4cc(OC)c(OC)cc4NC(=O)c4cc(=O)c5ccccc5o4)n3)cc1)CC2.CS(=O)(=O)O.O` [encequidar methane sulfonic acid monohydrate], the “Tmax of oral docetaxel (time at the maximum plasma concentration)” value was 42 ± 16.4 min.

Same assay, conditions: CD-1 mice; as compared to when there was no inhibitor

In the case of `COc1cc2c(cc1OC)CN(CCc1ccc(-n3nnc(-c4cc(OC)c(OC)cc4NC(=O)c4cc(=O)c5ccccc5o4)n3)cc1)CC2.CS(=O)(=O)O.O` [encequidar methane sulfonic acid monohydrate], the “increase in the systemic bioavailability of orally dosed docetaxel” value is reported as 3.4 fold.

— patent publication US20220106301A1, “ACETAMIDO-PHENYLBENZAMIDE DERIVATIVES AND METHODS OF USING THE SAME” (Athenex, Inc., priority 2020, published 2022)
